Results on 15 molecules are retold here after PubChem BioAssay AID256 (DTP/NCI, 2004).

Values joined by “and” are separate entries in the source; they are usually repeats but may differ in a detail not shown here. Equal entries are not always repeated. Toxic doses and inconclusive results are not listed.

This assay relates to CD2F1 mice, L1210 leukemia ip, survival T/C. As to the kind of experiment: NCI In Vivo Anticancer Drug Screen. Data for tumor model L1210 Leukemia (intraperitoneal) in CD2F1 (CDF1) mice. To be noted: higher = longer survival. In a few lines: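 Each value reflects a quotient of treated over vehicle control outcomes in mice with a transplanted tumor.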
The mark [1] stands for this setting: endpoint: mean survival time, dose: 100.0 mg/kg/injection, schedule: Q01DX001 (ip), vehicle: saline.
Setting [2] is: endpoint: mean survival time, dose: 200.0 mg/kg/injection, schedule: Q01DX001 (ip), vehicle: saline.
The mark [3] stands for this setting: endpoint: mean survival time, dose: 400.0 mg/kg/injection, schedule: Q01DX001 (ip), vehicle: saline.
Where [4] appears, read: endpoint: mean survival time, dose: 100.0 mg/kg/injection, schedule: Q04DX003 (ip), vehicle: saline with Tween-80.
Where [5] appears, read: endpoint: mean survival time, dose: 200.0 mg/kg/injection, schedule: Q04DX003 (ip), vehicle: saline with Tween-80.
Setting [6] is: endpoint: mean survival time, dose: 400.0 mg/kg/injection, schedule: Q04DX003 (ip), vehicle: saline with Tween-80.
Where [7] appears, read: endpoint: mean survival time, dose: 200.0 mg/kg/injection, schedule: Q01DX009 (ip), vehicle: Klucel (hydroxypropylcellulose) (HPC).
Setting [8] is: endpoint: mean survival time, dose: 400.0 mg/kg/injection, schedule: Q01DX009 (ip), vehicle: Klucel (hydroxypropylcellulose) (HPC).

In the case of `CC(=O)Nc1ccc(C(=O)C=P(c2ccccc2)(c2ccccc2)c2ccccc2)cc1`, the T/C under setting [1] was 101 % of control, the T/C under setting [2] was 97 % of control and the T/C under setting [3] is 97 % of control.

`O=C(NC(Cc1ccc(I)cc1)C(=O)O)c1cccc(Br)c1` (configuration not stated): the T/C was 105 % of control (endpoint: median survival time, dose: 25.0 mg/kg/injection, schedule: Q01DX009 (ip), vehicle: Klucel (hydroxypropylcellulose) (HPC)); 97 % of control (endpoint: median survival time, dose: 50.0 mg/kg/injection, schedule: Q01DX009 (ip), vehicle: Klucel (hydroxypropylcellulose) (HPC)); 94 % of control (endpoint: median survival time, dose: 100.0 mg/kg/injection, schedule: Q01DX009 (ip), vehicle: Klucel (hydroxypropylcellulose) (HPC)); 94 % of control (endpoint: median survival time, dose: 200.0 mg/kg/injection, schedule: Q01DX009 (ip), vehicle: Klucel (hydroxypropylcellulose) (HPC)).

Regarding `C[N+]12CCC34C5=CC(=O)C(=O)C=C5[N+]5(C)C(=O)CC6OCC=C(C1)C(CC32)C6C45` (configuration not stated), the T/C (endpoint: mean survival time, dose: 75.0 mg/kg/injection, schedule: Q01DX001 (ip), vehicle: saline) is 106 % of control.

Consider `CSc1nc(N)c2cnn(C3OC(CO)C(O)C3O)c2n1` (configuration not stated), for which the T/C (endpoint: median survival time, dose: 8.13 mg/kg/injection, schedule: Q01DX005 (ip), vehicle: saline with Tween-80) is 100 % of control; the T/C (endpoint: median survival time, dose: 9.0 mg/kg/injection, schedule: Q01DX005 (ip), vehicle: saline) is 107 % of control; the T/C (endpoint: median survival time, dose: 12.5 mg/kg/injection, schedule: Q01DX005 (ip), vehicle: saline with Tween-80) was 102 % of control; the T/C (endpoint: median survival time, dose: 16.25 mg/kg/injection, schedule: Q01DX005 (ip), vehicle: saline with Tween-80) is 97 % of control; the T/C (endpoint: median survival time, dose: 18.0 mg/kg/injection, schedule: Q01DX005 (ip), vehicle: saline) is 100 % of control; the T/C (endpoint: median survival time, dose: 25.0 mg/kg/injection, schedule: Q01DX005 (ip), vehicle: saline with Tween-80) was 100 % of control. Besides, the T/C was 101 % of control (endpoint: median survival time, dose: 32.5 mg/kg/injection, schedule: Q01DX005 (ip), vehicle: saline with Tween-80); 103 % of control (endpoint: median survival time, dose: 36.0 mg/kg/injection, schedule: Q01DX005 (ip), vehicle: saline); 94 % of control (endpoint: median survival time, dose: 50.0 mg/kg/injection, schedule: Q01DX005 (ip), vehicle: saline with Tween-80); 100 % of control (endpoint: median survival time, dose: 65.0 mg/kg/injection, schedule: Q01DX005 (ip), vehicle: saline with Tween-80); 97 % of control (endpoint: median survival time, dose: 72.0 mg/kg/injection, schedule: Q01DX005 (ip), vehicle: saline); 93 % of control (endpoint: median survival time, dose: 100.0 mg/kg/injection, schedule: Q01DX005 (ip), vehicle: saline with Tween-80). The T/C was 101 % of control (endpoint: median survival time, dose: 130.0 mg/kg/injection, schedule: Q01DX005 (ip), vehicle: saline with Tween-80) and 94 % of control (endpoint: median survival time, dose: 200.0 mg/kg/injection, schedule: Q01DX005 (ip), vehicle: saline with Tween-80).

In the case of `c1ccc(Sc2cccc3ccccc23)cc1`, the T/C reads like this: under setting [4], 102 % of control; under setting [5], 93 % of control; under setting [6], 91 % of control.

As for `O=C(O)C(=O)O`, the T/C was 92 % of control under setting [2] and 97 % of control under setting [3].

Turning to `CCCCCCCC(=O)Nc1cc(C)ccc1C`, the T/C was 94 % of control (endpoint: mean survival time, dose: 100.0 mg/kg/injection, schedule: Q01DX009 (ip), vehicle: saline with Tween-80); 98 % of control under setting [4]; 94 % of control (endpoint: mean survival time, dose: 200.0 mg/kg/injection, schedule: Q01DX009 (ip), vehicle: saline with Tween-80); 97 % of control under setting [5]; 98 % of control (endpoint: mean survival time, dose: 400.0 mg/kg/injection, schedule: Q01DX009 (ip), vehicle: saline with Tween-80); 98 % of control under setting [6].

As for `Nc1nc(N)c2cc(CNc3ccc(C(=O)NC(CC(=O)O)CC(=O)O)cc3)ccc2n1`, the T/C (endpoint: mean survival time, dose: 25.0 mg/kg/injection, schedule: Q01DX009 (ip), vehicle: Klucel (hydroxypropylcellulose) (HPC)) is 160 % of control; the T/C (endpoint: mean survival time, dose: 50.0 mg/kg/injection, schedule: Q01DX009 (ip), vehicle: Klucel (hydroxypropylcellulose) (HPC)) was 162 % of control and 206 % of control; the T/C under setting [7] was 114 % of control and 103 % of control; the T/C under setting [8] is 96 % of control and 98 % of control.

For `NC1(C(=O)O)CCCC1.[Pb]`, the T/C under setting [1] is 90 % of control.

Regarding `Nc1c(/C=C/c2cc3cc(C4=NCCN4)ccc3o2)[nH]c2cc(C3=NCCN3)ccc12`, the T/C was 124 % of control (endpoint: median survival time, dose: 3.12 mg/kg/injection, schedule: Q01DX009 (ip), vehicle: Klucel (hydroxypropylcellulose) (HPC)); 178 % of control (endpoint: median survival time, dose: 18.0 mg/kg/injection, schedule: Q01DX005 (ip), vehicle: Klucel (hydroxypropylcellulose) (HPC)); 160 % of control (endpoint: median survival time, dose: 25.0 mg/kg/injection, schedule: Q01DX005 (ip), vehicle: Klucel (hydroxypropylcellulose) (HPC)); 297 % of control (endpoint: median survival time, dose: 30.0 mg/kg/injection, schedule: Q01DX005 (ip), vehicle: Klucel (hydroxypropylcellulose) (HPC)); 171 % of control and 237 % of control (endpoint: median survival time, dose: 50.0 mg/kg/injection, schedule: Q01DX005 (ip), vehicle: Klucel (hydroxypropylcellulose) (HPC)).

For the molecule `COC(=O)c1ncn(C2OC(COC(=O)c3ccccc3)C(OC(=O)c3ccccc3)C2OC(=O)c2ccccc2)c1C(=O)OC` (configuration not stated), the T/C runs as follows: (endpoint: median survival time, dose: 8.75 mg/kg/injection, schedule: Q01DX005 (ip), vehicle: distilled water + Tween-80) 93 % of control; (endpoint: median survival time, dose: 12.5 mg/kg/injection, schedule: Q01DX005 (ip), vehicle: distilled water + Tween-80) 97 % of control; (endpoint: median survival time, dose: 25.0 mg/kg/injection, schedule: Q01DX005 (ip), vehicle: distilled water + Tween-80) 90 % of control; (endpoint: median survival time, dose: 35.0 mg/kg/injection, schedule: Q01DX005 (ip), vehicle: distilled water + Tween-80) 103 % of control; (endpoint: median survival time, dose: 50.0 mg/kg/injection, schedule: Q01DX005 (ip), vehicle: distilled water + Tween-80) 88 % of control; (endpoint: median survival time, dose: 100.0 mg/kg/injection, schedule: Q01DX005 (ip), vehicle: distilled water + Tween-80) 92 % of control. Besides, the T/C (endpoint: median survival time, dose: 140.0 mg/kg/injection, schedule: Q01DX005 (ip), vehicle: distilled water + Tween-80) is 89 % of control and the T/C (endpoint: median survival time, dose: 200.0 mg/kg/injection, schedule: Q01DX005 (ip), vehicle: distilled water + Tween-80) was 97 % of control.

For `Oc1cc2ccc3c(c2cc1O)CCc1cn[nH]c1-3`, the T/C is, setting by setting: (endpoint: mean survival time, dose: 25.0 mg/kg/injection, schedule: Q01DX001 (ip), vehicle: saline with Tween-80) 104 % of control; (endpoint: mean survival time, dose: 50.0 mg/kg/injection, schedule: Q01DX001 (ip), vehicle: saline with Tween-80) 111 % of control; (endpoint: mean survival time, dose: 100.0 mg/kg/injection, schedule: Q01DX001 (ip), vehicle: saline with Tween-80) 92 % of control.

For `O=C(Nc1cc(S(=O)(=O)O)ccc1Oc1ccccc1Cl)Nc1cc(S(=O)(=O)O)ccc1Oc1ccccc1Cl`, the T/C was 101 % of control (endpoint: mean survival time, dose: 100.0 mg/kg/injection, schedule: Q01DX009 (ip), vehicle: Klucel (hydroxypropylcellulose) (HPC)); 95 % of control under setting [4]; 98 % of control under setting [7]; 95 % of control under setting [5]; 97 % of control under setting [8]; 98 % of control under setting [6].

With `O=C(O)CC(=O)O.[NH-]CC(O)CN=Cc1ccccc1O.[Pt]` (configuration not stated), the T/C reads like this: (endpoint: median survival time, dose: 5.0 mg/kg/injection, schedule: Q04DX003 (ip), vehicle: water) 108 % of control; (endpoint: median survival time, dose: 10.0 mg/kg/injection, schedule: Q04DX003 (ip), vehicle: water) 105 % of control; (endpoint: median survival time, dose: 20.0 mg/kg/injection, schedule: Q04DX003 (ip), vehicle: water) 108 % of control; (endpoint: median survival time, dose: 25.0 mg/kg/injection, schedule: Q04DX003 (ip), vehicle: water) 110 % of control; (endpoint: median survival time, dose: 40.0 mg/kg/injection, schedule: Q04DX003 (ip), vehicle: water) 108 % of control; (endpoint: median survival time, dose: 50.0 mg/kg/injection, schedule: Q04DX003 (ip), vehicle: water) 110 % of control. Besides, the T/C by setting is: (endpoint: median survival time, dose: 100.0 mg/kg/injection, schedule: Q04DX003 (ip), vehicle: water) 105 % of control; (endpoint: median survival time, dose: 200.0 mg/kg/injection, schedule: Q04DX003 (ip), vehicle: water) 103 % of control.

`O.[Cl][Pt].[NH-]CC[S-]`: the T/C is 90 % of control (endpoint: mean survival time, dose: 12.5 mg/kg/injection, schedule: Q04DX003 (ip), vehicle: distilled water + Tween-80); 102 % of control (endpoint: mean survival time, dose: 25.0 mg/kg/injection, schedule: Q04DX003 (ip), vehicle: distilled water + Tween-80); 95 % of control (endpoint: mean survival time, dose: 50.0 mg/kg/injection, schedule: Q04DX003 (ip), vehicle: distilled water + Tween-80); 100 % of control (endpoint: mean survival time, dose: 100.0 mg/kg/injection, schedule: Q04DX003 (ip), vehicle: distilled water + Tween-80).
